In ChEMBL document CHEMBL1129506, “2,4-Diarylpyrrolidine-3-carboxylic acids--potent ETA selective endothelin receptor antagonists. 1. Discovery of A-127722” (J Med Chem, 1996) one finds IC50 data, which are given here for 43 compounds.

For test [1], the target named is T1, Endothelin receptor type B (Sus scrofa, UniProt P35463).
T1 sequence (P35463 whole entry): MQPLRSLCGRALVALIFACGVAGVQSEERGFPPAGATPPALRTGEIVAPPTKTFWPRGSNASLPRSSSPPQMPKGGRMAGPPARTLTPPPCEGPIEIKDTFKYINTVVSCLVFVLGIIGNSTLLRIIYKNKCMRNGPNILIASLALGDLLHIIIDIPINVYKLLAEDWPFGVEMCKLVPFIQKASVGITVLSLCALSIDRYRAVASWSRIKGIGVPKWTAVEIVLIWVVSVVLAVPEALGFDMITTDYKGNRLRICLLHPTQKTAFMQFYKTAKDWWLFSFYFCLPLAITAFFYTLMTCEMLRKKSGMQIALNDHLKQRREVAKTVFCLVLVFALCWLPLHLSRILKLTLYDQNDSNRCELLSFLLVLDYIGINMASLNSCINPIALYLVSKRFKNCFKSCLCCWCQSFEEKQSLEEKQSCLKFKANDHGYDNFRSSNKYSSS
The test is described as follows: Inhibitory activity measured against Endothelin B receptor binding to porcine cerebellum. The test is classed as tissue-based.

Test [2] has as its target T2, Endothelin-1 receptor (Rattus norvegicus, UniProt P26684).
T2 sequence (P26684 whole entry): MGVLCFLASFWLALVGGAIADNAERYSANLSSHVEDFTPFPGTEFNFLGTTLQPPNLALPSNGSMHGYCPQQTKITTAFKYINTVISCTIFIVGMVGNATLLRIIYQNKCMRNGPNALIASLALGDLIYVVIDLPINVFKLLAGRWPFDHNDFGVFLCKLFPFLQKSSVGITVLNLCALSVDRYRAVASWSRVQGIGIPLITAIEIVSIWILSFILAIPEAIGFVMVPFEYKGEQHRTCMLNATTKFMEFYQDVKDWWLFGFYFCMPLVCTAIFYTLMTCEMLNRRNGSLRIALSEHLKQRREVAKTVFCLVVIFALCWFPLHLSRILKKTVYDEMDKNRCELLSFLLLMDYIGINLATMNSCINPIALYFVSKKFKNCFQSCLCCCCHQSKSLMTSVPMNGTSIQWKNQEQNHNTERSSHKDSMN
Description: Inhibitory activity against the Endothelin A receptor of rat MMQ cells. It counts as cell-based.

Test [3] concerns the target T3, Endothelin receptor (Rattus norvegicus, UniProt P26684+P21451).
T3 sequence (P26684 whole entry): T2 sequence (P26684 whole entry)
T3 sequence (P21451 whole entry): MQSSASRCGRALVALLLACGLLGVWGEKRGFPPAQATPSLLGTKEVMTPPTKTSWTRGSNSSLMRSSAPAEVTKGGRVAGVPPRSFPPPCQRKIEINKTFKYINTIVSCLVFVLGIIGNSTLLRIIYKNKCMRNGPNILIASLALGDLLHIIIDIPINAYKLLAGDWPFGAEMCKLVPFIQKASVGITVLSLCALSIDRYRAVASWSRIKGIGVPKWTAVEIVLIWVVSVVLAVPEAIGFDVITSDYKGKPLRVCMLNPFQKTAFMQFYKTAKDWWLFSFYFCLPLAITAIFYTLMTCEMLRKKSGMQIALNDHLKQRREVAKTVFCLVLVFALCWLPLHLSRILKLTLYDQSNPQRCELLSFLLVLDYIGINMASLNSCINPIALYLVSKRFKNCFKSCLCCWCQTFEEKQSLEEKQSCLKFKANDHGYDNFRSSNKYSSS
The test is described as follows: Inhibition of phosphoinositol hydrolysis of MMQ cells. It counts as functional, cell-based.

One may read the IC50 as the concentration that inhibits the measured activity by half. A lower IC50 goes with higher potency.

Take `COc1ccc([C@@H]2[C@@H](C(=O)O)[C@H](c3ccc4c(c3)OCO4)CN2CCc2ccccn2)cc1`: the IC50 stood at 2.36 µM in test [1] and 0.9 µM in test [2].

Regarding `CCCC#CCN1C[C@@H](c2ccc3c(c2)OCO3)[C@H](C(=O)O)[C@H]1c1ccc(OC)cc1`, the values for the IC50 in test [1] and in test [2] were 3.59 µM and 0.765 µM, respectively.

Consider `COc1ccc([C@@H]2[C@@H](C(=O)O)[C@H](c3ccc4c(c3)OCO4)CN2C(=O)Nc2ccccc2)cc1`, for which the IC50 in test [1] worked out at 3.51 µM; in test [2] it was 2.43 µM.

For `COc1ccc([C@@H]2[C@@H](C(=O)O)[C@H](c3ccc4c(c3)OCO4)CN2CC(=O)NCC(C)C)cc1`, the figures for the IC50 in test [1], in test [2] and in test [3] were 0.184 µM, 0.0082 µM and 0.00922 µM, respectively.

For `COc1ccc([C@@H]2[C@@H](C(=O)O)[C@H](c3ccc4c(c3)OCO4)CN2CC(=O)N(CC(C)C)CC(C)C)cc1`, the IC50 is 1.82 µM in test [1], 0.0162 µM in test [2] and 0.0006 µM in test [3].

`CCCCCCN1C[C@@H](c2ccc3c(c2)OCO3)[C@H](C(=O)O)[C@H]1c1ccc(OC)cc1`: the IC50 in test [1] came to 23.3 µM; in test [2], 2.87 µM.

On to `CCCCNC(=O)N1C[C@@H](c2ccc3c(c2)OCO3)[C@H](C(=O)O)[C@H]1c1ccc(OC)cc1`, for which the IC50 turned out to be 11.1 µM in test [1] and 0.684 µM in test [2].

For the compound `CCCCN(CCCC)CCN1C[C@@H](c2ccc3c(c2)OCO3)[C@H](C(=O)O)[C@H]1c1ccc(OC)cc1`, the half-inhibitory concentration (IC50) was 1.59 µM in test [1] and 0.794 µM in test [2].

Consider `CCCC(CCC)C(=O)CN1C[C@@H](c2ccc3c(c2)OCO3)[C@H](C(=O)O)[C@H]1c1ccc(OC)cc1`, for which the values for the IC50 in test [1] and in test [2] were 0.283 µM and 0.085 µM, respectively.

Turning to `COc1ccc([C@@H]2[C@@H](C(=O)O)[C@H](c3ccc4c(c3)OCO4)CN2CC(=O)NC2CCCC2)cc1`, the IC50 in test [1] amounted to 0.307 µM; in test [2] it was 0.0162 µM; in test [3], 0.0238 µM.

For the compound `COc1ccc([C@@H]2[C@@H](C(=O)O)[C@H](c3ccc4c(c3)OCO4)CN2CCOCC(C)C)cc1`, the values for the IC50 in test [1] and in test [2] were 8.38 µM and 0.437 µM, respectively.

On to `COc1ccc([C@@H]2[C@@H](C(=O)O)[C@H](c3ccc4c(c3)OCO4)CN2CC(=O)N(C)Cc2ccccc2)cc1`, for which the values for the IC50 in test [1] and in test [2] were 1.68 µM and 0.769 µM, respectively.

Consider `COc1ccc([C@@H]2[C@@H](C(=O)O)[C@H](c3ccc4c(c3)OCO4)CN2C(=O)c2ccco2)cc1`, for which the IC50 in test [1] stood at 40.3 µM; in test [2], 5.22 µM.

Consider `COc1ccc([C@@H]2[C@@H](C(=O)O)[C@H](c3ccc4c(c3)OCO4)CN2CC(=O)N(CCC(C)C)CCC(C)C)cc1`, for which the IC50 in test [1] is 0.041 µM; in test [2], 0.00043 µM.

Take `COc1ccc([C@@H]2[C@@H](C(=O)O)[C@H](c3ccc4c(c3)OCO4)CN2CC(=O)N(C)c2ccccc2)cc1`: the IC50 in test [1] was found to be 1.18 µM; in test [2], 0.0502 µM.

Regarding `CCCOCCN1C[C@@H](c2ccc3c(c2)OCO3)[C@H](C(=O)O)[C@H]1c1ccc(OC)cc1`, the IC50 in test [1] stood at 4.97 µM; in test [2] it was 0.108 µM.

For the compound `CCCCS(=O)(=O)N1C[C@@H](c2ccc3c(c2)OCO3)[C@H](C(=O)O)[C@H]1c1ccc(OC)cc1`, the IC50 amounted to 6.18 µM in test [1] and 1.24 µM in test [2].

`CC[S+]([O-])CCN1C[C@@H](c2ccc3c(c2)OCO3)[C@H](C(=O)O)[C@H]1c1ccc(OC)cc1` (stereo partly specified): the IC50 in test [1] amounted to 0.834 µM; in test [2], 0.044 µM.

`COc1ccc([C@@H]2[C@@H](C(=O)O)[C@H](c3ccc4c(c3)OCO4)CN2CC(N)=O)cc1` registered an IC50 in test [1] of 3.27 µM.

Consider `COc1ccc([C@@H]2[C@@H](C(=O)O)[C@H](c3ccc4c(c3)OCO4)CN2CC(=O)N2CCCCC2)cc1`, for which the IC50 was 3.04 µM in test [1] and 0.35 µM in test [2].

Turning to `COc1ccc(NC(=O)N2C[C@@H](c3ccc4c(c3)OCO4)[C@H](C(=O)O)[C@H]2c2ccc(OC)cc2)cc1`, the IC50 in test [1] turned out to be 3.79 µM; in test [2], 0.781 µM.

Regarding `COc1ccc([C@@H]2[C@@H](C(=O)O)[C@H](c3ccc4c(c3)OCO4)CN2CCOc2ccccc2)cc1`, the IC50 in test [1] turned out to be 3.4 µM; in test [2], 0.885 µM.

In the case of `COc1ccc([C@@H]2[C@@H](C(=O)O)[C@H](c3ccc4c(c3)OCO4)CN2CC(=O)N(C)C2CCCCC2)cc1`, the IC50 in test [1] was found to be 0.806 µM; in test [2], 0.0238 µM; in test [3], 0.00206 µM.

Regarding `COc1ccc([C@@H]2[C@@H](C(=O)O)[C@H](c3ccc4c(c3)OCO4)CN2C(=O)N2CCOCC2)cc1`, the IC50 was determined as 5.02 µM in test [1] and 1.08 µM in test [2].

Take `CCCCOCCN1C[C@@H](c2ccc3c(c2)OCO3)[C@H](C(=O)O)[C@H]1c1ccc(OC)cc1`: the IC50 is 3.83 µM in test [1] and 0.22 µM in test [2].

Turning to `CCCS(=O)(=O)CCN1C[C@@H](c2ccc3c(c2)OCO3)[C@H](C(=O)O)[C@H]1c1ccc(OC)cc1`, the 50% inhibitory concentration (IC50) was 0.75 µM in test [1] and 0.037 µM in test [2].

`CCCCN(CCCC)C(=O)N1C[C@@H](c2ccc3c(c2)OCO3)[C@H](C(=O)O)[C@H]1c1ccc(OC)cc1`: the IC50 in test [1] was found to be 1.47 µM; in test [2], 0.396 µM.

As to `COc1ccc([C@@H]2[C@@H](C(=O)O)[C@H](c3ccc4c(c3)OCO4)CN2Cc2ccc(F)cc2)cc1`, the IC50 in test [1] stood at 7.93 µM; in test [2], 4.32 µM.

Turning to `C#CCN(C)C(=O)CN1C[C@@H](c2ccc3c(c2)OCO3)[C@H](C(=O)O)[C@H]1c1ccc(OC)cc1`, the IC50 was 4 µM in test [1] and 0.106 µM in test [2].

For the compound `CCCCCN(C)C(=O)CN1C[C@@H](c2ccc3c(c2)OCO3)[C@H](C(=O)O)[C@H]1c1ccc(OC)cc1`, the IC50 in test [1] turned out to be 0.624 µM; in test [2], 0.00578 µM; in test [3] it was 0.00564 µM.

Consider `CCCCC(=O)CN1C[C@@H](c2ccc3c(c2)OCO3)[C@H](C(=O)O)[C@H]1c1ccc(OC)cc1`, for which the IC50 in test [1] was 2.43 µM; in test [2], 0.163 µM.

In test [1], `COc1ccc([C@@H]2[C@@H](C(=O)O)[C@H](c3ccc4c(c3)OCO4)CN2C(=O)COc2ccc(F)cc2)cc1` returned an IC50 of 12.7 µM.

For `CCCN(CCC)C(=O)CCN1C[C@@H](c2ccc3c(c2)OCO3)[C@H](C(=O)O)[C@H]1c1ccc(OC)cc1`, the IC50 turned out to be 4.2 µM in test [1] and 0.121 µM in test [2].

On to `COCCNC(=O)CN1C[C@@H](c2ccc3c(c2)OCO3)[C@H](C(=O)O)[C@H]1c1ccc(OC)cc1`, for which the IC50 in test [1] was determined as 3.73 µM; in test [2], 0.178 µM.

With `COc1ccc([C@@H]2[C@@H](C(=O)O)[C@H](c3ccc4c(c3)OCO4)CN2C/C=C/CC(C)C)cc1`, the IC50 turned out to be 27.3 µM in test [1] and 1.63 µM in test [2].

With `COCCOCCN1C[C@@H](c2ccc3c(c2)OCO3)[C@H](C(=O)O)[C@H]1c1ccc(OC)cc1`, the IC50 in test [1] was determined as 3.39 µM; in test [2], 0.682 µM.

For `CCOCCN1C[C@@H](c2ccc3c(c2)OCO3)[C@H](C(=O)O)[C@H]1c1ccc(OC)cc1`, the IC50 is 9.01 µM in test [1] and 0.52 µM in test [2].

In the case of `CCCCN(CCCC)CC(=O)N1C[C@@H](c2ccc3c(c2)OCO3)[C@H](C(=O)O)[C@H]1c1ccc(OC)cc1`, the IC50 was 29.4 µM in test [1] and 6.81 µM in test [2].

`CCCCN(C(=O)CN1C[C@@H](c2ccc3c(c2)OCO3)[C@H](C(=O)O)[C@H]1c1ccc(OC)cc1)c1ccccc1`: the results for the IC50 in test [1] and in test [2] were 0.306 µM and 0.00081 µM, respectively.

For the compound `CCCCCN(CCCCC)C(=O)CN1C[C@@H](c2ccc3c(c2)OCO3)[C@H](C(=O)O)[C@H]1c1ccc(OC)cc1`, the IC50 in test [1] amounted to 0.313 µM; in test [2] it was 0.00056 µM.

For the compound `CCCCN(CCCC)C(=O)C(C)N1CC(c2ccc3c(c2)OCO3)C(C(=O)O)C1c1ccc(OC)cc1` (stereo unspecified), the IC50 in test [1] came to 0.315 µM; in test [2], 0.00046 µM; in test [3], 0.00134 µM.

For `COc1ccc([C@@H]2[C@@H](C(=O)O)[C@H](c3ccc4c(c3)OCO4)CN2CC(=O)N(C)CC(C)(C)C)cc1`, the figures for the IC50 in test [1] and in test [2] were 1.8 µM and 0.112 µM, respectively.

On to `CCCCN(CC)C(=O)CN1C[C@@H](c2ccc3c(c2)OCO3)[C@H](C(=O)O)[C@H]1c1ccc(OC)cc1`, for which the results for the IC50 in test [1], in test [2] and in test [3] were 0.531 µM, 0.00085 µM and 0.00033 µM, respectively.
